What was measured:
[1] = biological target: T1, Bgl3A (Evansstolkia leycettana, UniProt A0A1B0VFN7); experiment: inhibition of daidzin hydrolysis, HPLC; type: biochemical; settings: 0.5 mM daidzin, glucose printed as 10 mM but 80 mM stock diluted fourfold; pH 6.5, 37 °C, 5 min
T1 construct: laboratory stock enzyme

[2] = biological target: AsBG1 (Alicyclobacillus sp. A4, UniProt A0A220YLM5); experiment: inhibition of cellobiose hydrolysis, ion exchange chromatography; type: biochemical; settings: read-out: % inhibition at 10 mM
Sequence of AsBG1 (A0A220YLM5 1-454 limits assumed): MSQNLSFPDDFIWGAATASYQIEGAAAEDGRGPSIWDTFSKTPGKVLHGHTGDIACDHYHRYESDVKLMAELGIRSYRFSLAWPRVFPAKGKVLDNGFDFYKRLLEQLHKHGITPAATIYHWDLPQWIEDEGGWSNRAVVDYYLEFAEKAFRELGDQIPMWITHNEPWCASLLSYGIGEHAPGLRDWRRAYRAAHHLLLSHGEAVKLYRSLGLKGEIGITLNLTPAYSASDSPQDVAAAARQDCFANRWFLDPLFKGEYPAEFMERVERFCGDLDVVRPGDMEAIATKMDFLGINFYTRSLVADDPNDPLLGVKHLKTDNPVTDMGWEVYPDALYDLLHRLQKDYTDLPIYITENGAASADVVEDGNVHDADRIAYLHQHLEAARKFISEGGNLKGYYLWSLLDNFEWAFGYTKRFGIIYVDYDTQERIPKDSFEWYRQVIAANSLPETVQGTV

[3] = tested on: O=[N+]([O-])c1ccc(O[C@@H]2O[C@H](CO)[C@@H](O)[C@H](O)[C@H]2O)cc1; experiment: initial rate, Lineweaver-Burk plot; type: biochemical, Alicyclobacillus sp. A4; settings: pH 6.5, 55 °C, 5 min, 0.2-1.5 mM pNPG

T1 sequence (A0A1B0VFN7 entry or part of it): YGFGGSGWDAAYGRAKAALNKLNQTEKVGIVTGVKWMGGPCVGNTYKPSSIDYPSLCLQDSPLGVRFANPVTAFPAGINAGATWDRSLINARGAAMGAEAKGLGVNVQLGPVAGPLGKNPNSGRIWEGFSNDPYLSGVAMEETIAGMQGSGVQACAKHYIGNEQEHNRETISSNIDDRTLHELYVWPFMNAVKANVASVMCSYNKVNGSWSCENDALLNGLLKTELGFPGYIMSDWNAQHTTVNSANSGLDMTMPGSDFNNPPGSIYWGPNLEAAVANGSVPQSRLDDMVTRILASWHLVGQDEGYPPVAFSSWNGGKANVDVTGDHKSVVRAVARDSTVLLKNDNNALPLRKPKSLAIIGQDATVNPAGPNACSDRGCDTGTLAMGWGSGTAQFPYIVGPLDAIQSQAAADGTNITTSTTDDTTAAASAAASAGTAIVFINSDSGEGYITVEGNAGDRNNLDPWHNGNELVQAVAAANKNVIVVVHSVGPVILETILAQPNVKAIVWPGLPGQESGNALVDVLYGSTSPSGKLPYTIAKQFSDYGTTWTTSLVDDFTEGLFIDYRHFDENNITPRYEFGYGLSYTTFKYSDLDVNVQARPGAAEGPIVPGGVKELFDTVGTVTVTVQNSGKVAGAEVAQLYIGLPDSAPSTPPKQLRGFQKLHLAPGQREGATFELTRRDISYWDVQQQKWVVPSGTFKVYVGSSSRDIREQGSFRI

| Compound | inhibition of daidzin hydrolysis, HPLC [1] | inhibition at 10000 µM [2] | Km [3] |
| --- | --- | --- | --- |
| OC[C@H]1OC(O)[C@H](O)[C@@H](O)[C@@H]1O (stereo partly drawn) [glucose] | the conversion efficiency of daidzin by Bgl3A was seriously impeded by glucose | ~60% |  |
| AsBG1 (Alicyclobacillus sp. A4) |  |  | 400 µM |
